Experimental data reported in patent US7713970B2, “Substituted cyclic urea derivatives” (FMC Corporation, priority 2004, dated 2010).

System: tobacco budworm (Heliothis virescens [Fabricius])
Assay: surface-treated diet test against tobacco budworm
Assay type: in vivo
Conditions: 0.25 millimolar candidate insecticide on the surface of the diet, second instar larvae, five-day exposure; for Percent Mortality: compared to total number of insects infested; for Percent Growth Inhibition: inhibition of insect weight relative to untreated controls
Method: Candidate insecticides were evaluated for activity against the tobacco budworm (Heliothis virescens [Fabricius]) in a surface-treated diet test.
In this test one mL of molten (65-70° C.) wheat germ-based artificial diet was pipetted into each well of a four by six (24 well) multi-well plate (ID# 430345-15.5 mm dia.×17.6 mm deep; Corning Costar Corp., One Alewife Center, Cambridge, Mass. 02140). The diet was allowed to cool to ambient temperature before treatment with candidate insecticide.
For a determination of insecticidal activity, solutions of the candidate insecticides were prepared for testing using a Packard 204DT Multiprobe® Robotic System (Packard Instrument Company, 800 Research Parkway, Meriden, Conn. 06450), in which the robot first diluted a standard 50 millimolar DMSO solution of candidate insecticide with a 1:1 water/acetone solution (V/V) in a ratio of 1:7 stock solution to water/acetone. The robot subsequently pipetted 40 microliters of the so-prepared solution onto the surface of the diet in each of three wells in the 24 multi-well plate. The process was repeated with solutions of seven other candidate insecticides. Once treated, the contents of the multi-well plate were allowed to dry, leaving 0.25 millimoles of candidate insecticide on the surface of the diet, or a concentration of 0.25 millimolar. Appropriate untreated controls containing only DMSO on the diet surface were also included in this test.
For evaluations of the insecticidal activity of a candidate insecticide at varying rates of application, the test was established as described above using sub-multiples of the standard 50 millimolar DMSO solution of candidate insecticide. For example, the standard 50 millimolar solution was diluted by the robot with DMSO to give 5, 0.5, 0.05, 0.005, 0.0005 millimolar, or more dilute solutions of the candidate insecticide. In these evaluations there were six replicates of each rate of application placed on the surface of the diet in the 24 multi-well plate, for a total of four rates of application of candidate insecticide in each plate.
In each well of the test plate was placed one second instar tobacco budworm larvea, each weighing approximately five milligrams. After the larvae were placed in each well, the plate was sealed with clear polyfilm adhesive tape. The tape over each well was perforated to ensure an adequate air supply. The plates were then held in a growth chamber at 25° C. and 60% relative humidity for five days (light 14 hours/day).
After the five-day exposure period insecticidal activity for each rate of application of candidate insecticide was assessed as percent inhibition of insect weight relative to the weight of insects from untreated controls, and percent mortality when compared to the total number of insects infested.

SMILES | Percent Mortality [%] | Percent Growth Inhibition [%]
O=c1cnn(-c2ccc(Cl)c(Cl)c2)c(=O)n1CCCCOc1c(Cl)cc(OCC=C(Cl)Cl)cc1Cl [Compound 647] | 100 | 100
O=c1n(CCCCOc2c(Cl)cc(OCC=C(Cl)Cl)cc2Cl)cnn1-c1cc(F)cc(F)c1 [Compound 87] | 100 | 100
O=c1n(CCCCOc2c(Cl)cc(OCC=C(Cl)Cl)cc2Cl)nnn1Cc1ccc(Cl)cc1 [Compound 515] | 100 | 100
O=c1n(Cc2ccc(C(F)(F)F)cc2)cnn1CCOc1c(Cl)cc(OCC=C(Cl)Cl)cc1Cl [Compound 548] | 100 | 100
Cc1nn(-c2ccc(Cl)cc2)c(=O)n1CCCCOc1c(Cl)cc(OCC=C(Cl)Cl)cc1Cl [Compound 113] | 100 | 100
O=c1n(CCCCOc2c(Cl)cc(OCC=C(Cl)Cl)cc2Cl)nnn1-c1cccc(C(F)(F)F)c1 [Compound 304] | 100 | 100
O=c1n(Cc2ccc(C(F)(F)F)cc2)cnn1CCCCOc1c(Cl)cc(OCC=C(Cl)Cl)cc1Cl [Compound 546] | 100 | 100
O=c1n(CCCCOc2c(Cl)cc(OCC=C(Cl)Cl)cc2Cl)nnn1Cc1ccccc1Cl [Compound 513] | 100 | 100
O=c1n(CCCCOc2cc(Cl)c(OCC=C(Cl)Cl)c(Cl)c2)nnn1-c1cccc(Cl)c1 [Compound 661] | 100 | 100
O=c1n(CCOc2c(Cl)cc(OCC=C(Cl)Cl)cc2Cl)cnn1-c1ccc(C(F)(F)F)cc1 [Compound 105] | 100 | 100
O=c1n(CCCCOc2c(Cl)cc(OCC=C(Cl)Cl)cc2Cl)cnn1-c1ccccc1 [Compound 94] | 100 | 100
O=c1n(CCCOc2c(Cl)cc(OCC=C(Cl)Cl)cc2Cl)cnn1-c1ccc(C(F)(F)F)cc1 [Compound 106] | 100 | 100
O=c1n(CCCCOc2c(Cl)cc(OCC=C(Cl)Cl)cc2Cl)nnn1-c1ccc(Cl)cc1 [Compound 300] | 100 | 100
O=c1cnn(-c2ccccc2)c(=O)n1CCCCOc1c(Cl)cc(OCC=C(Cl)Cl)cc1Cl [Compound 657] | 100 | 100
O=c1n(CCOc2c(Cl)cc(OCC=C(Cl)Cl)cc2Cl)nnn1Cc1ccccc1Cl [Compound 522] | 50 | 100
O=c1n(CCCCOc2c(Cl)cc(OCC=C(Cl)Cl)cc2Cl)cnn1-c1ccc(Br)cc1 [Compound 104] | 100 | 100
O=c1n(CCCCOc2c(Cl)cc(OCC=C(Cl)Cl)cc2Cl)cnn1-c1ccc(Cl)c(Cl)c1 [Compound 80] | 100 | 100
Cc1cc(C)cc(-n2ncn(CCCCOc3c(Cl)cc(OCC=C(Cl)Cl)cc3Cl)c2=O)c1 [Compound 100] | 100 | 100

SMILES | Percent Mortality [%] | Percent Growth Inhibition [%]
Cc1ccc(-n2ncn(CCCCOc3c(Cl)cc(OCC=C(Cl)Cl)cc3Cl)c2=O)cc1 [Compound 86] | 100 | 100
O=c1n(CCCCOc2c(Cl)cc(OCC=C(Cl)Cl)cc2Cl)nnn1-c1ccccc1 [Compound 307] | 100 | 100
O=c1cnn(-c2ccc(F)cc2F)c(=O)n1CCCCOc1c(Cl)cc(OCC=C(Cl)Cl)cc1Cl [Compound 653] | 100 | 100
COc1cc(-n2ncc(=O)n(CCCCOc3c(Cl)cc(OCC=C(Cl)Cl)cc3Cl)c2=O)ccc1Cl [Compound 654] | 100 | 100
O=c1n(CCCCOc2c(Cl)cc(OCC=C(Cl)Cl)cc2Cl)cnn1-c1cccc(Cl)c1 [Compound 75] | 100 | 100
Cc1nn(-c2ccc(C(F)(F)F)cc2)c(=O)n1CCCCOc1c(Cl)cc(OCC=C(Cl)Cl)cc1Cl [Compound 131] | 100 | 100
N#Cc1ccc(-n2ncn(CCCCOc3c(Cl)cc(OCC=C(Cl)Cl)cc3Cl)c2=O)cc1 [Compound 89] | 100 | 100
O=c1n(CCCCOc2c(Cl)cc(OCC=C(Cl)Cl)cc2Cl)cnn1-c1ccc(OC(F)(F)F)cc1 [Compound 97] | 100 | 100
Cc1nn(-c2ccc(Cl)cc2Cl)c(=O)n1CCCCOc1c(Cl)cc(OCC=C(Cl)Cl)cc1Cl [Compound 118] | 100 | 100
Cc1nn(-c2ccc(S(=O)(=O)C(F)F)cc2)c(=O)n1CCCCOc1c(Cl)cc(OCC=C(Cl)Cl)cc1Cl [Compound 135] | 100 | 100
O=c1n(CCCCOc2c(Cl)cc(OCC=C(Cl)Cl)cc2Cl)nnn1Cc1cccc(Cl)c1 [Compound 514] | 100 | 100
O=c1n(CCCCOc2c(Cl)cc(OCC=C(Cl)Cl)cc2Cl)cnn1-c1cccc(Cl)c1Cl [Compound 76] | 100 | 100
Cc1nn(-c2ccc(C(C)(C)C)cc2)c(=O)n1CCCCOc1c(Cl)cc(OCC=C(Cl)Cl)cc1Cl [Compound 125] | 100 | 100
O=c1n(CCCCOc2c(Cl)cc(OCC=C(Cl)Cl)cc2Cl)nnn1Cc1cc(Cl)cc(Cl)c1 [Compound 521] | 100 | 100
CC(C)(C)c1ccc(-n2ncn(CCCCOc3c(Cl)cc(OCC=C(Cl)Cl)cc3Cl)c2=O)cc1 [Compound 83] | 100 | 100
O=c1n(CCCCOc2c(Cl)cc(OCC=C(Cl)Cl)cc2Cl)nnn1-c1cc(Cl)cc(Cl)c1 [Compound 299] | 100 | 100
Cc1ccc(-n2ncn(CCCCOc3c(Cl)cc(OCC=C(Cl)Cl)cc3Cl)c2=O)cc1C [Compound 99] | 100 | 100
